Tested on: HT-29
Test: Compound was tested in vitro to inhibit 50% colon carcinoma HT-29 cell growth after 72 h
Assay type: functional, cell-based
Settings: Homo sapiens, HT-29, 72 h

COc1cccc2c1C(=O)c1c(O)c3c(c(O)c1C2=O)C[C@@](O)(C(=O)CO)C[C@@H]3O[C@H]1C[C@H](N)[C@H](O)[C@H](C)O1 [DOXORUBICIN]
EC50: 2500 nM

From ChEMBL document CHEMBL1129765, “Azonia derivatives of the -carboline system. A new class of DNA intercalators” (Bioorg Med Chem Lett, 1996)
